Laboratory results: patent publication US20250026757A1, “Bicyclic Compounds for the Control of Invertebrate Pests” (BASF SE, priority 2021, published 2025)

Experiments:
Format in all cases: in vivo
Myzus persicae = assay: Green peach aphid (Myzus persicae) systemic test, artificial diet in 96-well microtiter plates; conditions: 72 h, adult aphids on treated diet, 3 days, read-out: mortality in comparison with untreated controls
Text: B.1 Green Peach Aphid (Myzus persicae)
For evaluating control of green peach aphid (Myzus persicae) through systemic means, the test unit consisted of 96-well-microtiter plates containing liquid artificial diet under an artificial membrane.
The compounds were formulated using a solution containing 75% v/v water and 25% v/v DMSO. Different concentrations of formulated compounds were pipetted into the aphid diet, using a custom built pipetter, at two replications.
After application, 5-8 adult aphids were placed on the artificial membrane inside the microtiter plate wells. The aphids were then allowed to suck on the treated aphid diet and incubated at about 23±1° C. and about 50±5% relative humidity for 3 days. Aphid mortality and fecundity was then visually assessed.

Anthonomus grandis = assay: Boll weevil (Anthonomus grandis) test, eggs on insect diet in 96-well microtiter plates; conditions: 120 h, egg and larval mortality, 5 days, read-out: mortality in comparison with untreated controls
Experimental: B.3 Boll Weevil (Anthonomus grandis)
For evaluating control of boll weevil (Anthonomus grandis), the test unit consisted of 96-well-microtiter plates containing an insect diet and 5-10 A. grandis eggs.
The compounds were formulated using a solution containing 75% v/v water and 25% v/v DMSO. Different concentrations of formulated compounds were sprayed onto the insect diet at 5 μl, using a custom-built micro atomizer, at two replications.
After application, microtiter plates were incubated at about 25±1° C. and about 75±5% relative humidity for 5 days. Egg and larval mortality was then visually assessed.

Aedes aegypti = assay: whole plant or invertebrate; conditions: 48 h, larval mortality, 2 days, read-out: mortality in comparison with untreated controls
Experimental: B.5 Yellow Fever Mosquito (Aedes aegypti)
For evaluating control of yellow fever mosquito (Aedes aegypti) the test unit consisted of 96-well-microtiter plates containing 200 μl of tap water per well and 5-15 freshly hatched A. aegypti larvae.
The active compounds were formulated using a solution containing 75% (v/v) water and 25% (v/v) DMSO. Different concentrations of formulated compounds or mixtures were sprayed onto the insect diet at 2.5 μl, using a custom-built micro atomizer, at two replications.
After application, microtiter plates were incubated at 28±1° C., 80±5% RH for 2 days. Larval mortality was then visually assessed.

Spodoptera eridania = assay: Southern armyworm (Spodoptera eridania), 2nd instar larvae, foliar spray on lima bean plants; conditions: 96 h, 2nd instar larvae on sprayed lima bean, 4 days after treatment, read-out: mortality in comparison with untreated controls
Experimental: B.4. Southern Armyworm (Spodoptera eridania), 2nd Instar Larvae
The active compounds were formulated by a Tecan liquid handler in 100% cyclohexanone as a 10,000-ppm solution supplied in tubes. The 10,000-ppm solution was serially diluted in 100% cyclohexanone to make interim solutions. These served as stock solutions for which final dilutions were made by the Tecan in 50% acetone:50% water (v/v) into 10 or 20 ml glass vials. A non-ionic surfactant (Kinetic®) was included in the solution at a volume of 0.01% (v/v). The vials were then inserted into an automated electrostatic sprayer equipped with an atomizing nozzle for application to plants/insects. Lima bean plants (variety Sieva) were grown 2 plants to a pot and selected for treatment at the 1st true leaf stage. Test solutions were sprayed onto the foliage by an automated electrostatic plant sprayer equipped with an atomizing spray nozzle. The plants were dried in the sprayer fume hood and then removed from the sprayer. Each pot was placed into perforated plastic bags with a zip closure. Ten to 11 armyworm larvae were placed into the bag and the bags zipped closed. Test plants were maintained in a growth room at about 25° C. and about 20-40% relative humidity for 4 days, avoiding direct exposure to fluorescent light (14:10 light:dark photoperiod) to prevent trapping of heat inside the bags. Mortality and reduced feeding were assessed 4 days after treatment, compared to untreated control plants.

Heliothis virescens = assay: Tobacco budworm (Heliothis virescens) test, eggs on insect diet in 96-well microtiter plates; conditions: 120 h, egg and larval mortality, 5 days, read-out: mortality in comparison with untreated controls
Experimental: B.2 Tobacco Budworm (Heliothis virescens)
For evaluating control of tobacco budworm (Heliothis virescens), the test unit consisted of 96-well-microtiter plates containing an insect diet and 15-25 H. virescens eggs.
The compounds were formulated using a solution containing 75% v/v water and 25% v/v DMSO. Different concentrations of formulated compounds were sprayed onto the insect diet at 10 μl, using a custom-built micro atomizer, at two replications.
After application, microtiter plates were incubated at about 28±1° C. and about 80±5% relative humidity for 5 days. Egg and larval mortality was then visually assessed.

CCS(=O)(=O)c1cc(Br)cnc1-c1nc2cc(C(F)(F)F)n(C)n2c(=O)c1C [Compound I-16, 5-(5-bromo-3-ethylsulfonyl-2-pyridyl)-1,6-dimethyl-2-(trifluoromethyl)pyrazolo[1,5-a]pyrimidin-7-one]
≥ 75%: mortality at 2500 ppm (Myzus persicae) | mortality at 2500 ppm (Anthonomus grandis)

CCS(=O)(=O)c1cc(N=S(C)(C)=O)cnc1-c1cc(=O)n2c(cc(C(F)(F)F)n2C)n1 [Compound I-2, 5-[5-[[dimethyl(oxo)-λ6-sulfanylidene]amino]-3-ethylsulfonyl-2-pyridyl]-1-methyl-2-(trifluoromethyl)pyrazolo[1,5-a]pyrimidin-7-one]
≥ 75%: mortality at 2500 ppm (Myzus persicae) | mortality at 2500 ppm (Anthonomus grandis) | mortality at 2500 ppm (Aedes aegypti)

CCS(=O)(=O)c1cc(Br)ccc1-c1cc(=O)n2c(cc(C(F)(F)F)n2C)n1 [Compound I-7, 5-(4-bromo-2-ethylsulfonyl-phenyl)-1-methyl-2-(trifluoromethyl)pyrazolo[1,5-a]pyrimidin-7-one]
≥ 75%: mortality at 2500 ppm (Myzus persicae) | mortality at 2500 ppm (Aedes aegypti) | mortality at 300 ppm (Spodoptera eridania)

CCS(=O)(=O)c1cc(-c2ccc(OC(F)F)cc2)cnc1-c1cc(=O)n2c(cc(C(F)(F)F)n2C)n1 [Compound I-4, 5-[5-[4-(difluoromethoxy)phenyl]-3-ethylsulfonyl-2-pyridyl]-1-methyl-2-(trifluoromethyl)pyrazolo[1,5-a]pyrimidin-7-one]
≥ 75%: mortality at 2500 ppm (Myzus persicae) | mortality at 2500 ppm (Anthonomus grandis) | mortality at 2500 ppm (Aedes aegypti) | mortality at 300 ppm (Spodoptera eridania) | mortality at 2500 ppm (Heliothis virescens)

CCS(=O)(=O)c1cc(Br)cnc1-c1cc(=O)n2c(cc(C(F)(F)F)n2C)n1 [Compound I-1, 5-(5-bromo-3-ethylsulfonyl-2-pyridyl)-1-methyl-2-(trifluoromethyl)pyrazolo[1,5-a]pyrimidin-7-one]
≥ 75%: mortality at 2500 ppm (Myzus persicae) | mortality at 2500 ppm (Anthonomus grandis) | mortality at 2500 ppm (Aedes aegypti) | mortality at 2500 ppm (Heliothis virescens)

CCS(=O)(=O)c1cc(-c2ccc(F)cc2)cnc1-c1cc(=O)n2c(cc(C(F)(F)F)n2C)n1 [Compound I-3, 5-[3-ethylsulfonyl-5-(4-fluorophenyl)-2-pyridyl]-1-methyl-2-(trifluoro-methyl)pyrazolo[1,5-a]pyrimidin-7-one]
≥ 75%: mortality at 2500 ppm (Myzus persicae) | mortality at 2500 ppm (Anthonomus grandis) | mortality at 2500 ppm (Aedes aegypti) | mortality at 300 ppm (Spodoptera eridania) | mortality at 2500 ppm (Heliothis virescens)
